What was measured:
Penicillium sp (Pen381) = assay: MEA agar plate colony growth test; type: cell-based; conditions: single component, agar plates
Description: (§1) Each experiment existed of 10 MEA agar plates containing a successive amount of component, starting from 0 ppm to the maximal used concentration.
(§2) MEA was prepared by dissolving 20 g of Malt extract (Difco, England), 1 g of Peptone (Becton Dickinson, USA), 20 g of glucose and 20 g of bacteriological agar (No. 1. Oxoid, England) in 11 of dematerialized water. The pH was adjusted to 3.2 by adding 5.9 ml of Hcl 1M after heat sterilization.
(§3) A stock solution was made for each component. The stock was 25 times the maximal used concentration. A successive amount from 0 to 900 μl of these stocks, making the concentration range, was pipetted in 10, 50 ml capped test tubes.
(§4) Subsequently, 25 ml of warm (80-90° C.) MEA agar was pipetted, using a sterile 25 ml pipette, in the tubes and the tubes were vortexed slowly but vigorously. Next, the component containing agar was poured out in 9 cm Petri dishes. Besides single components against single moulds, combinations of propionate with potassium cinnamate or vanillin were tested on solid agar. To prepare these binary combinations 6.25 ml of a 4 times concentrated component was mixed with the other components that was also 4 times concentrated. The mix of components were mixed with 12.5 ml double concentrated MEA to reach the preferred concentrations.
(§5) After the plates were dried a dot was spotted at the backside and in the centre of the petridish 0.5 μl of the mould spore solution was spotted on the agar targeting the dot in the centre. When the drop was dried in, the plates were placed bottom down in the incubator at 25° C.
(§6) The growth of colonies was determined by measurement of the colony diameter at different points in time. The growth curves were converted to dose response curves as described in 2.6.
(§7) The data from the agar plate experiments were obtained by measuring the colony size changes. The change in time was interpreted as growth speed and growth curves were plotted.
(§8) To convert the growth curves to dose response curves the μ Max (maximum growth rate) was calculated per concentration of antimicrobial component. The curves were fitted to a Logistic Dose Response (LDR) Intercept Form (Equation 8013) using Table curve 2D version 5.1

[1] = test system: Byssoaclamys fulva (Bysful2); assay: MEA agar plate colony growth test; type: cell-based; conditions: single component, agar plates
Description: as §1, §2, §3, §4, §5, §6, §7, §8

pure cultures of moulds = assay: single components and binary combinations on MEA agar plates against pure cultures of moulds (colony diameter); type: cell-based, Fusarium oxisporum, Byssoaclamys fulva, Penicillium sp
Description: as §1, §2, §3, §4, §5, §6, §7
To convert the growth curves to dose response curves the μ Max (maximum growth rate) was calculated per concentration of antimicrobial component. […]

mould cocktail = assay: combinations of components in model drink in 96-well microtiter plates, visual observation of growth; type: cell-based, Fusarium oxisporum, Byssoaclamys fulva, Penicillium sp; conditions: 3 weeks at 20°
Description: The tests where two components or more components were combined in model drink were carried out in sterile 96-well microtiter plates. Sterile matrix was prepared according recipe of Nestle with increasing quantities of two different inhibitors. The concentrations of each inhibitor were presented in 8 equal concentration steps that ranged from 0 to 1-2 times the (estimated) MIC value of particular mould for a particular inhibitor resulting in 64 different media. 200 μl of each medium was transferred to a panel of a sterile 96-well microtiter plate.
Completed well plates were stored at 4° C. until further use. The data was obtained via optical observation of growth.
Spores of all moulds were collected via the method as described in 2.3. Spores were counted using the Burker-turk method and adjusted to a log 5 per ml in PFZ and mixed to a homologue suspension. This suspension was diluted 100 times for inoculation.
In order to have an idea of the efficacy of the combination of propionate, vanillin and potassium cinnamate in model drink, some experiments were done in microwells plates. These experiments were visually observed after 3 weeks of incubation at 20° and used as pre-application experiments in order to create an expectation for the efficacy of the components in long term application experiments. The data that is shown in table 5 below is divided in “+” and “−”. The “+” means visible growth, while the “−” means no visible growth of the mould cocktail at the specific concentrations. […] However, combined with an amount of nearly 400 ppm of propionate and 75 ppm of vanillin the model drink is stable for at least 3 weeks.

| Compound | concentration at which Penicillium is inhibited (Penicillium sp (Pen381)) | concentration at which Byssoclamys is inhibited [1] | sensitivity of all moulds to the component (pure cultures of moulds) | amount needed for an overall inhibition of all moulds (pure cultures of moulds; single component, also printed as 900 ppm) | growth of Penicillium (Penicillium sp (Pen381); after 100 ppm) | inhibition of Penicillium (Penicillium sp (Pen381); levels up to 200 ppm) | inhibition of the growth of the mould cocktail (mould cocktail; 350 ppm alone) | visible growth of mould cocktail (mould cocktail; Kcinnamate 0.0050% (w/v)) | visible growth of mould cocktail (mould cocktail; Kcinnamate 0.0100% (w/v)) | visible growth of mould cocktail (mould cocktail; Kcinnamate 0.0150% (w/v)) | visible growth of mould cocktail (mould cocktail; Kcinnamate 0.0200% (w/v)) | visible growth of mould cocktail (mould cocktail; Kcinnamate 0.0250% (w/v)) | visible growth of mould cocktail (mould cocktail; Kcinnamate 0.0300% (w/v)) | visible growth of mould cocktail (mould cocktail; Kcinnamate 0.0350% (w/v)) |
| --- | --- | --- | --- | --- | --- | --- | --- | --- | --- | --- | --- | --- | --- | --- |
| CCC(=O)O [propionate, Propionic acid] | approximately 0.15% | approximately 0.15% | sensitive | – | – | – | – | – | – | – | – | – | – | – |
| COc1cc(C=O)ccc1O [vanillin, 4-Hydroxy-3-methoxybenzaldehyde] | – | – | sensitive | approximately 0.09% | – | – | – | – | – | – | – | – | – | – |
| O=C([O-])C=Cc1ccccc1.[K+] [potassium cinnamate] | – | – | – | – | dramatic increase | not inhibited | not sufficient | + | + | + | + | + | + | + |
